In ChEMBL document CHEMBL4715696, “In vitro synergistic anticancer activity of the combination of T-type calcium channel blocker and chemotherapeutic agent in A549 cells” (Bioorg Med Chem Lett, 2016):

How the values were obtained:
A549 [1] = experiment: Decrease in cell cycle associated protein expression in human A549 cells assessed as fold change in CDK4 expression at 10 uM after 36 hrs by Western blot analysis (reference value: 0.87); type: functional
A549 [2] = experiment: Decrease in cell cycle associated protein expression in human A549 cells assessed as fold change in cyclin D2 expression at 10 uM after 36 hrs by Western blot analysis (reference value: 0.77); type: functional
A549 [3] = experiment: Decrease in cell cycle associated protein expression in human A549 cells assessed as fold change in CDK2 expression at 10 uM after 24 hrs by Western blot analysis (reference value: 0.79); type: functional
A549 [4] = experiment: Potentiation of cisplatin-induced cell cycle arrest in human A549 cells assessed as accumulation at G1 phase at 2.5 uM in presence of cisplatin after 48 hrs by flow cytometric analysis (reference value: 14.4%); type: functional
A549 [5] = experiment: Decrease in cell cycle associated protein expression in human A549 cells assessed as fold change in cyclin D2 expression at 5 uM after 48 hrs by Western blot analysis (reference value: 0.46); type: functional
A549 [6] = experiment: Induction of cell cycle arrest in human A549 cells assessed as increase in cell accumulation at G1 phase after 48 hrs by flow cytometric analysis; type: functional, cell-based; settings: dose 2.5-10 µM
A549 [7] = experiment: Potentiation of cisplatin-induced cell cycle arrest in human A549 cells assessed as accumulation at sub G1 phase at 10 uM in presence of cisplatin after 48 hrs by flow cytometric analysis (reference value: 17%); type: functional
A549 [8] = experiment: Decrease in cell cycle associated protein expression in human A549 cells assessed as fold change in CDK4 expression at 10 uM after 12 hrs by Western blot analysis (reference value: 0.87); type: functional
A549 [9] = experiment: Induction of cell cycle arrest in human A549 cells assessed as decrease in cell accumulation at G2/M phase after 48 hrs by flow cytometric analysis; type: functional, cell-based; settings: dose 2.5-10 µM
[10] = Metabolic stability in rat liver microsomes assessed as parent compound remaining at 1 uM measured for 30 mins; type: ADME, Microsome; settings: read-out: Stabilty
A549 [11] = experiment: Decrease in cell cycle associated protein expression in human A549 cells assessed as fold change in CDK4 expression at 10 uM after 48 hrs by Western blot analysis (reference value: 0.62 to 0.87); type: functional
A549 [12] = experiment: Decrease in cell cycle associated protein expression in human A549 cells assessed as reduction in cyclin D2 expression at 10 uM by Western blot analysis; type: functional, cell-based; settings: time 6-48 hrs, TDE = time-dependent effect
A549 [13] = experiment: Decrease in cell cycle associated protein expression in human A549 cells assessed as fold change in cyclin D3 expression at 5 uM after 48 hrs by Western blot analysis (reference value: 0.73); type: functional
A549 [14] = experiment: Decrease in cell cycle associated protein expression in human A549 cells assessed as fold change in cyclin D2 expression at 10 uM after 6 hrs by Western blot analysis (reference value: 0.77); type: functional
A549 [15] = experiment: Decrease in cell cycle associated protein expression in human A549 cells assessed as fold change in CDK6 expression at 10 uM after 48 hrs by Western blot analysis (reference value: 0.7 to 1.05); type: functional
A549 [16] = experiment: Upregulation of p27KIP1 protein expression in human A549 cells at 10 uM by Western blot analysis; type: functional, cell-based; settings: time 6-48 hrs, TDE = time-dependent effect
[17] = Metabolic stability in human plasma assessed as parent compound remaining at 10 uM measured after 30 mins; type: ADME, cell-free; settings: read-out: Stabilty
A549 [18] = experiment: Decrease in cell cycle associated protein expression in human A549 cells assessed as reduction in CDK6 expression after 48 hrs by Western blot analysis; type: functional, cell-based; settings: dose 2.5-10 µM
[19] = Solubility of the compound at pH 7.4; type: physicochemical; settings: buffer
[20] = Metabolic stability in dog liver microsomes assessed as parent compound remaining at 1 uM measured for 30 mins; type: ADME, Canis lupus familiaris, Microsome; settings: read-out: Stabilty
[21] = Upregulation of p27KIP1 protein expression in human A549 cells assessed as fold change in expression at 10 uM after 6 hrs by Western blot analysis (reference value: 0.83); type: functional
A549 [22] = experiment: Induction of cell cycle arrest in human A549 cells assessed as accumulation at G1 phase at 5 uM after 48 hrs by flow cytometric analysis (reference value: 57.8 to 65.5%); type: functional
A549 [23] = experiment: Induction of cell cycle arrest in human A549 cells assessed as accumulation at S phase at 5 uM after 24 hrs by flow cytometric analysis (reference value: 17.6%); type: functional
A549 [24] = experiment: Decrease in cell cycle associated protein expression in human A549 cells assessed as fold change in cyclin D3 expression at 10 uM after 48 hrs by Western blot analysis (reference value: 0.73 to 1.09); type: functional
A549 [25] = experiment: Induction of apoptosis in human A549 cells assessed as early apoptotic cells at 10 uM incubated for 48 hrs by AnnexinV-FITC/propidium iodide staining based flow cytometry (reference value: 1.2%); type: functional
A549 [26] = experiment: Potentiation of cisplatin-induced cell cycle arrest in human A549 cells assessed as accumulation at S phase at 5 uM in presence of cisplatin after 48 hrs by flow cytometric analysis (Rvb =15.8%); type: functional
A549 [27] = experiment: Decrease in cell cycle associated protein expression in human A549 cells assessed as fold change in cyclin D3 expression at 10 uM after 24 hrs by Western blot analysis (reference value: 1.09); type: functional
A549 [28] = experiment: Decrease in cell cycle associated protein expression in human A549 cells assessed as reduction in CDK2 expression after 48 hrs by Western blot analysis; type: functional, cell-based; settings: dose 2.5-10 µM
A549 [29] = experiment: Decrease in cell cycle associated protein expression in human A549 cells assessed as fold change in cyclin D2 expression at 10 uM after 24 hrs by Western blot analysis (reference value: 0.77); type: functional
[30] = Metabolic stability in rat plasma assessed as parent compound remaining at 10 uM measured after 1 hr; type: ADME, cell-free; settings: read-out: Stabilty
A549 [31] = experiment: Decrease in cell cycle associated protein expression in human A549 cells assessed as fold change in CDK4 expression at 2.5 uM after 48 hrs by Western blot analysis (reference value: 0.62); type: functional
A549 [32] = experiment: Decrease in cell cycle associated protein expression in human A549 cells assessed as fold change in cyclin D3 expression at 10 uM after 6 hrs by Western blot analysis (reference value: 1.09); type: functional
A549 [33] = experiment: Decrease in cell cycle associated protein expression in human A549 cells assessed as fold change in cyclin D1 expression at 5 uM after 48 hrs by Western blot analysis (reference value: 0.39); type: functional

CN(C)C(=O)NCCCN(C)C1=Nc2ccccc2C(CC(=O)NCc2ccc(F)cc2)N1c1ccc(C2CCCCC2)cc1 (stereo not drawn)
fold change (FC) (A549 [1]): 0.79
fold change (FC) (A549 [2]): 0.61
fold change (FC) (A549 [3]): 0.61
Activity (A549 [4]): 19.2%
fold change (FC) (A549 [5]): 0.52
Activity (A549 [6]): Dose-dependent effect
Activity (A549 [7]): 52.3%
fold change (FC) (A549 [8]): 0.61
Activity (A549 [9]): Dose-dependent effect
remaining at 0.5 h, 1 µM [10]: 62.6%
fold change (FC) (A549 [11]): 0.46
Activity (A549 [12]): Tde
fold change (FC) (A549 [13]): 0.77
fold change (FC) (A549 [14]): 0.86
fold change (FC) (A549 [15]): 0.14
Activity (A549 [16]): Tde
remaining at 0.5 h, 10 µM [17]: 113%
Activity (A549 [18]): Dose-dependent effect
solubility [19]: < 1000 µg/mL
remaining at 0.5 h, 1 µM [20]: 92.6%
fold change (FC) [21]: 0.3
Activity (A549 [22]): 67.7%
Activity (A549 [23]): 12.4%
fold change (FC) (A549 [24]): 0.55
Activity (A549 [25]): 8.8%
Activity (A549 [26]): 16.8%
fold change (FC) (A549 [27]): 0.51
Activity (A549 [28]): Dose-dependent effect
fold change (FC) (A549 [29]): 0.43
remaining at 1 h, 10 µM [30]: 22%
fold change (FC) (A549 [31]): 0.71
fold change (FC) (A549 [32]): 1.23
fold change (FC) (A549 [33]): 0.5
